Laboratory results as given in US8412460B2, “Methods and systems for characterizing a cellular constituent using response profiles” (priority 2000, dated 2013).
Entries after “also recorded” stand apart in the source; their conditions may differ.

Legend:
[1] = system: S. cerevisiae; assay: Two-color cDNA microarray expression profiling of mutant or compound-treated yeast cultures (300-experiment compendium) with hierarchical clustering; type: cell-based; conditions: for DNA-damage/S-phase arrest inducible RNR2, RNR3 and RNR4 transcripts / mutant in the affected pathway whose profile the profile caused by the inhibitory compound resembles: FIG. 9B; for clustering of treatment profile with profiles from cell wall related mutants gas1Δ, spf1Δ, and amp1Δ: FIG. 11A
Procedure: Experimental (mutant or chemically treated) cultures were grown, harvested and processed in parallel with corresponding wild-type or control cultures. A complete list of experimental conditions is provided, below, in Table 2.
Several colonies of similar size were picked from freshly-streaked YAPD agar plates into liquid Synthetic Complete medium (SC) with 2% glucose, grown overnight at 30° C. to mid-log phase, diluted to 0.4-1.0×10^6 cells/mL, and grown an addition 5-7 hours until reaching 0.4-1.0[…], at which point they were pelleted by centrifugation from 2 minutes at room temperature and frozen in liquid nitrogen. The final optical densities of experimental and control cultures were matched as closely as possible. For experiments involving treatments with chemical compounds (including doxycycline), compounds were added at the beginning of the 5-7 hour final groth phase, with equal amounts of solvent or doxycyline added to control cultures as appropriate. Total RNA was prepared by phenol:chloroform extraction followed by ethanol precipitation as described previously (see, e.g., Marton et al., 1998, Nat. Med. 4:1293-1301) except that the step vortexing with glass beads was replaced with a 10 minute incubation at 65° C. followed by 1 minute of vortexing. Poly-A+ RNA purification, cDNA labeling, microarray production, and microarray hybridization and washing were also done as previously described (e.g., in Marton et al., supra) with measurements taken in fluor-reversed pairs. Arrays were scanned, images were quantitated and physical artifacts such as dust and salt residue were edited as described previously (see, e.g., Marton et aL, supra). Resulting data files were evaluated by a series of quality-control criteria relating, first, to the image itself and, second, to known biological artifacts. For purposes of illustrating the impact of biases, experiments flagged as containing biological artifacts were noted by were not excluded from subsequent data analysis steps.
Clustering analysis of the perturbation response profiles was done as described, below, in Section 5.2.4. Specifically, the analysis comprised two steps. First, profiles and transcripts were selected from a data matrix and, second, experiments and responsive genes were grouped by agglomerative hierarchical clustering (see Hartigan, 1975, Clustering Algorithms, John Wiley & Sons, New York) where the similarity measure is the error-weighted correlation coefficient provided in Equation 11 below. Genes and experiments (i.e., columns and rows, respectively, of the data matrix) were then re-ordered according to the resulting clustering similarity trees. A statistical significance (i.e., a P-value) was also calculated for each bifurcation in the resulting cluster tree using the methods for determining statistical significance of cluster groups which are also described, below, in Section 5.2.4.
Using a two-color cDNA microarray hybridization assay (see, Schena et al., 1995, Science 270:467-470), three hundred expression profiles were generated in S. cerevisiae in which transcript levels of a mutant or compound-treated culture were compared to that of a wild-type or mock-treated culture. 276 deletion mutants, 11 tetracycline-regulatable alleles of essential genes (Gari et al., 1997, Yeast 13:837-848) and 13 well-characterized compounds were profile. Sixty-nine of the 276 deletions were of uncharacterized open reading frames (ORFs). To allow direct comparison of the behavior of all genes in response to all mutations and treatments, experiments were performed under a single condition: cells were grown at 30° C. in liquid synthetic complete SC) medium plus 2% glucose to mid-log phase, with the final optical densities of the experimental and control cultures closely matched (see Section 6.1 above). […]

[2] = target: T1, Erg2p, the sterol C-8 isomerase (Saccharomyces cerevisiae, UniProt P32352); assay: Sterol profiles by gas chromatography of the nonsaponifiable fraction; type: cell-based, yeast; conditions: dyclonine-treated cells, FIG. 11F
T1 construct: endogenous in cells; host or cells: S. cerevisiae, Saccharomyces Genome Deletion Consortium strain background
Procedure: Sterols were identified using pure standards and on the basis of relative retention times. Nonsaponifiables were isolated from yeast as previously described (Molzahn and Woods, 1972, J Gen. Microbiol. 72:339-348). Gas chromatography (GC) analyses of the nonsaponifiable fraction were analyzed on a HP5890 series II GC equipped with the HP chemstation software. The capillary column (DB5) was 15 m×0.25 mm i.d., 0.2 μm film thickness and was programmed from 195 fC to 300 fC (195 fC for 3 min., 5.5 fC/min. to 300 fC then held for 10 min.). The linear velocity was 30 cm/s using nitrogen and the carrier gas and all injections were run in the splitless mode.

[3] = system: wild type yeast cells; conditions: levels that give maximal repression of promoter activity (10 micrograms/nil); cited from earlier work
[4] = target: yeast Erg2 enzyme (Saccharomyces cerevisiae, UniProt P32352); conditions: cited from earlier work
Chain of yeast Erg2 enzyme (P32352 whole entry): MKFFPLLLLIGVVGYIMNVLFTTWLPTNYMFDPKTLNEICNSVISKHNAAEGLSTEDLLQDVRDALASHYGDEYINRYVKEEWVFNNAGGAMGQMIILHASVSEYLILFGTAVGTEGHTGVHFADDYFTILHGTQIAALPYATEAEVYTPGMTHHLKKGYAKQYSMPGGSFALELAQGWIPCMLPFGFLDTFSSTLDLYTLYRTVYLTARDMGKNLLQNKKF

T1 sequence (P32352 whole entry): as above

Q: For NC(=O)NO [hydroxyurea], which “DNA-damage/S-phase arrest inducible RNR2, RNR3 and RNR4 transcripts” value [1] is on record?
A: induced

Q: And the “mutant in the affected pathway whose profile the profile caused by the inhibitory compound resembles” value (“mutant … by the inhibitory compound resembles” below) [1]?
A: rnr1

Q: Which “mutant … by the inhibitory compound resembles” value [1] does the source give for CCC(C)n1ncn(-c2ccc(N3CCN(c4ccc(OCC5COC(Cn6cncn6)(c6ccc(Cl)cc6Cl)O5)cc4)CC3)cc2)c1=O (stereo not shown) [itraconzaole] here?
A: erg/11

Q: For N[C@H]1C(O)O[C@H](CO)[C@@H](O)[C@@H]1O (stereo partly shown) [glucosamine], which “mutant … by the inhibitory compound resembles” value [1] is on record?
A: gas1

Q: What about the “clustering of treatment profile with profiles from cell wall related mutants gas1Δ, spf1Δ, and amp1Δ” value (shortened to “clustering of treatment profile … and amp1Δ”) [1] of the same compound?
A: form a discrete cluster together with

Q: For CCCCOc1ccc(C(=O)CCN2CCCCC2)cc1 [dyclonine], which “expression profile of drug-treated yeast compared with the compendium profiles” value ([1]; six hour treatment with 0.063% dyclonine (FIG. 11E)) is on record?
A: correlates most closely with the response profile obtained from a cell line in which the erg2p gene has been “knocked out.”; also recorded: most closely resembled profiles resulting from perturbation of the ergosterol pathway

Q: What about the “sterol accumulating in treated cells and enzyme inferred to be inhibited (GC analysis)” value [2] of the same compound?
A: buildup of fecosterol, indicating inhibition of Erg2p

Q: And the “sterol content of treated cells (GC analysis)” value [2]?
A: abnormal

Q: For C[C@H]1c2cccc(O)c2C(=O)C2=C(O)[C@]3(O)C(=O)C(C(N)=O)=C(O)[C@@H](N(C)C)[C@@H]3[C@@H](O)[C@@H]21 [doxycycline], which “effect on the growth rate on wild type yeast cells” value [3] is on record?
A: no significant effect

Q: For C/C=C1\NC(=O)[C@H]2CSSCC/C=C/[C@H](CC(=O)N[C@H](C(C)C)C(=O)N2)OC(=O)[C@H](C(C)C)NC1=O [FR901,228], which “mutant … by the inhibitory compound resembles” value [1] is on record?
A: rpd3

Q: With O=C(CCCN1CCC(O)(c2ccc(Cl)cc2)CC1)c1ccc(F)cc1 [haloperidol] as the compound, how does the “binding and inhibition of the yeast Erg2 enzyme” value [4] read?
A: binds and inhibits

Q: Which “mutant … by the inhibitory compound resembles” value [1] does the source give for tunicamycin here?
A: gas1

Q: And the “clustering of treatment profile … and amp1Δ” value [1]?
A: form a discrete cluster together with

Q: With O=CC[C@@H](O)[C@H](O)[C@H](O)CO [2-deoxy-D-glucose] as the compound, how does the “mutant … by the inhibitory compound resembles” value [1] read?
A: gas1

Q: And the “clustering of treatment profile … and amp1Δ” value [1]?
A: form a discrete cluster together with

Q: With CC[C@H](C)C(=O)O[C@H]1C[C@@H](C)C=C2C=C[C@H](C)[C@H](CC[C@@H]3C[C@@H](O)CC(=O)O3)[C@H]21 [lovastatin] as the compound, how does the “correlation of transcript profile of compound treatment with profile of reduced expression of the target gene” value ([1]; FIG. 9E) read?
A: correlates highly with the profile produced by reducing expression of HMG2

Q: With COS(C)(=O)=O [MMS] as the compound, how does the “DNA-damage/S-phase arrest inducible RNR2, RNR3 and RNR4 transcripts” value [1] read?
A: induced

Q: With C[C@@H]1C[C@@H]([C@H](O)CC2CC(=O)NC(=O)C2)C(=O)[C@@H](C)C1 [cycloheximide] as the compound, how does the “mutant … by the inhibitory compound resembles” value [1] read?
A: yef3

Q: And the “clustering of treatment profile with ribosome subunit deletion profiles” value ([1]; all regulations greater than 1.5-fold masked, small regulations used as basis of clustering)?
A: this profile cluster gains additional translation-related experiments
